In general, EC50 refers to the concentration at which the effect is half-maximal.

The experiment has as its target T1, recombinant IL4I1 (Homo sapiens, UniProt Q96RQ9).
T1 construct: purchased R&D Systems 5684-AO-020
T1 sequence (Q96RQ9 22-567): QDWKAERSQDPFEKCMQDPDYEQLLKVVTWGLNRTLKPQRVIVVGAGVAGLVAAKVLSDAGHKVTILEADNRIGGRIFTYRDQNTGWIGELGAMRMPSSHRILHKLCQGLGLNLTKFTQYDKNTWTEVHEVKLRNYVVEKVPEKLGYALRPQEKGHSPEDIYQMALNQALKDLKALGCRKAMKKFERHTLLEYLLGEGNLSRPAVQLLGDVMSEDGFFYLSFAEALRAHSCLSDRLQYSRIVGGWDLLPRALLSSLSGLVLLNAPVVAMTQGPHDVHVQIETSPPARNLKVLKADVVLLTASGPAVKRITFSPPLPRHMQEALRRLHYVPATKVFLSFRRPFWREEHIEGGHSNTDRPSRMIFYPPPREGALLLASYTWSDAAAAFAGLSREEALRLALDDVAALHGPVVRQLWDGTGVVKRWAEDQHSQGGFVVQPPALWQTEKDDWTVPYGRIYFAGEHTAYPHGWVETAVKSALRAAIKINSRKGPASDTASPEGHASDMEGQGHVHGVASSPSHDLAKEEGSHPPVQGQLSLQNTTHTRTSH
Kind of experiment: IL4I1 Enzymatic Assay (Amplex Red/HRP coupled detection of H2O2, fluorescence). Type of experiment: biochemical. Conditions: 1 nM recombinant IL4I1; four-hour pre-incubation with compound; 1 mM each Phe, Tyr, Trp; ten-point titration. The method, boiled down:
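Recombinant IL4I1 (1 nM final) pre-incubated 4 h at ambient temperature with compound (0.5% DMSO) in 50 mM Hepes pH 7.0, 0.005% Tween20; reaction started with 1 mM each Phe/Tyr/Trp plus excess Amplex Red/HRP, run 120 min. H2O2 read as resorufin fluorescence; EC50 from 10-point four-parameter fit.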
As to `Cc1cc(C(=O)NCc2nnc(-c3ccccc3)s2)ns1` [Example 260, 5-methyl-N-((5-phenyl-1,3,4-thiadiazol-2-yl)methyl)isothiazole-3-carboxamide], the EC50 was 0.069 µM. Next, `Cc1ccc(-n2cc(C(=O)NCc3ccc(-c4ccccc4)nn3)nn2)c(C)n1` [Example 261, 1-(2,6-dimethylpyridin-3-yl)-N-((6-phenylpyridazin-3-yl)methyl)-1H-1,2,3-triazole-4-carboxamide]: 0.025 µM; `Cc1ccc(-n2cc(C(=O)NCc3nnc(-c4cccnc4)s3)nn2)c(C)n1` [Example 264, 1-(2,6-dimethylpyridin-3-yl)-N-((5-(pyridin-3-yl)-1,3,4-thiadiazol-2-yl)methyl)-1H-1,2,3-triazole-4-carboxamide]: 0.48 µM; `Cc1ccc(-n2cc(C(=O)NCc3nnc(-c4ccncc4)s3)nn2)c(C)n1` [Example 265, 1-(2,6-dimethylpyridin-3-yl)-N-((5-(pyridin-4-yl)-1,3,4-thiadiazol-2-yl)methyl)-1H-1,2,3-triazole-4-carboxamide]: 0.016 µM. Next, `Cc1ccc(-n2cc(C(=O)NCc3cc(-c4ccncc4)on3)nn2)c(C)n1` [Example 266, 1-(2,6-dimethylpyridin-3-yl)-N-((5-(pyridin-4-yl)isoxazol-3-yl)methyl)-1H-1,2,3-triazole-4-carboxamide]: 0.026 µM; `Cc1ccc(-n2cc(C(=O)NCc3nnc(-c4ccccc4)s3)nn2)cn1` [Example 267, 1-(6-methylpyridin-3-yl)-N-((5-phenyl-1,3,4-thiadiazol-2-yl)methyl)-1H-1,2,3-triazole-4-carboxamide]: 0.145 µM. Next, `O=C(NCc1nnc(-c2ccccc2)s1)c1cn(C2CC2)nn1` [Example 268, 1-cyclopropyl-N-((5-phenyl-1,3,4-thiadiazol-2-yl)methyl)-1H-1,2,3-triazole-4-carboxamide]: 0.008 µM; `CC(C)n1cc(C(=O)NCc2nnc(-c3ccncc3)s2)nn1` [Example 269, 1-isopropyl-N-((5-(pyridin-4-yl)-1,3,4-thiadiazol-2-yl)methyl)-1H-1,2,3-triazole-4-carboxamide]: 0.01 µM.

For the compound `Cc1cnc(-n2cc(C(=O)NCc3nnc(-c4ccccc4)s3)nn2)c(C)n1` [Example 270, 1-(3,5-dimethylpyrazin-2-yl)-N-((5-phenyl-1,3,4-thiadiazol-2-yl)methyl)-1H-1,2,3-triazole-4-carboxamide], the EC50 is 0.02 µM. As to `CC(C)(C(N)=O)n1cc(C(=O)NCc2cc(-c3ccccc3)on2)nn1` [Example 271, 1-(1-amino-2-methyl-1-oxopropan-2-yl)-N-((5-phenylisoxazol-3-yl)methyl)-1H-1,2,3-triazole-4-carboxamide], the EC50 was 0.027 µM. Regarding `O=C(NCc1nnc(-c2ccccc2)s1)c1cn(C(F)F)nn1` [Example 272, 1-(difluoromethyl)-N-((5-phenyl-1,3,4-thiadiazol-2-yl)methyl)-1H-1,2,3-triazole-4-carboxamide], the EC50 was determined as 0.012 µM. For the compound `Cc1ccc(-n2cc(C(=O)NCc3cc(-c4nccs4)on3)nn2)c(C)n1` [Example 273, 1-(2,6-dimethylpyridin-3-yl)-N-((5-(thiazol-2-yl)isoxazol-3-yl)methyl)-1H-1,2,3-triazole-4-carboxamide], the EC50 was determined as 0.511 µM.

Regarding `O=C(NCc1nnc(-c2ccccc2)s1)c1cn(C(F)(F)F)nn1` [Example 274, N-((5-phenyl-1,3,4-thiadiazol-2-yl)methyl)-1-(trifluoromethyl)-1H-1,2,3-triazole-4-carboxamide], the EC50 was found to be 0.031 µM. In the case of `Cc1nc(C2COC2)ccc1-n1cc(C(=O)NCc2nnc(-c3ccccc3)s2)nn1` [Example 277, 1-(2-methyl-6-(oxetan-3-yl)pyridin-3-yl)-N-((5-phenyl-1,3,4-thiadiazol-2-yl)methyl)-1H-1,2,3-triazole-4-carboxamide] it was 0.179 µM; in that of `Cc1ccc(-n2cc(C(=O)NCc3nnc(-c4ccccc4)s3)nn2)c(Cl)n1` [Example 278, 1-(2-chloro-6-methylpyridin-3-yl)-N-((5-phenyl-1,3,4-thiadiazol-2-yl)methyl)-1H-1,2,3-triazole-4-carboxamide], 0.015 µM; in that of `Cc1ccc(-n2cc(C(=O)NCc3nnc(-c4ccccc4)s3)nn2)c(Br)n1` [Example 279, 1-(2-bromo-6-methylpyridin-3-yl)-N-((5-phenyl-1,3,4-thiadiazol-2-yl)methyl)-1H-1,2,3-triazole-4-carboxamide], 0.008 µM.

On to `Cc1ncc(-n2cc(C(=O)NCc3nnc(-c4ccccc4)s3)nn2)c(C)n1` [Example 280, 1-(2,4-dimethylpyrimidin-5-yl)-N-((5-phenyl-1,3,4-thiadiazol-2-yl)methyl)-1H-1,2,3-triazole-4-carboxamide], for which the EC50 was determined as 0.859 µM.

Turning to `O=C(NCc1nnc(-c2ccccc2)s1)c1cn([C@H]2C[C@H](O)C2)nn1` [Example 281], the EC50 was determined as 0.011 µM.

With `O=C(NCc1nnc(-c2ccccc2)s1)c1cn([C@H]2C[C@@H](O)C2)nn1` [Example 282], the EC50 was found to be 0.005 µM. Turning to `Cc1ccc(-c2cc(C(=O)NCc3nnc(-c4ccccc4)s3)on2)c(C)n1` [Example 283, 3-(2,6-dimethylpyridin-3-yl)-N-((5-phenyl-1,3,4-thiadiazol-2-yl)methyl)isoxazole-5-carboxamide], the EC50 was 0.165 µM. Next, `O=C(NCc1cc(-c2ccncc2)no1)c1cn(C2CC2)nn1` [Example 284, 1-cyclopropyl-N-((3-(pyridin-4-yl)isoxazol-5-yl)methyl)-1H-1,2,3-triazole-4-carboxamide]: 0.074 µM; `O=C(NCc1nnc(-c2ccccc2)s1)c1cn(-c2cn[nH]c2)nn1` [Example 287, N-((5-phenyl-1,3,4-thiadiazol-2-yl)methyl)-1-(1H-pyrazol-4-yl)-1H-1,2,3-triazole-4-carboxamide]: 0.009 µM; `Cn1cc(-n2cc(C(=O)NCc3nnc(-c4ccccc4)s3)nn2)cn1` [Example 288, 1-(1-methyl-1H-pyrazol-4-yl)-N-((5-phenyl-1,3,4-thiadiazol-2-yl)methyl)-1H-1,2,3-triazole-4-carboxamide]: 0.039 µM. On to `Cn1nnc(C(=O)NCc2nnc(-c3ccccc3)s2)c1F` [Example 289, 5-fluoro-1-methyl-N-((5-phenyl-1,3,4-thiadiazol-2-yl)methyl)-1H-1,2,3-triazole-4-carboxamide], for which the EC50 was determined as 0.301 µM. Take `O=C(NCc1ccc(-c2ccccc2)nn1)c1cn(C2COC2)nn1` [Example 290, 1-(oxetan-3-yl)-N-((6-phenylpyridazin-3-yl)methyl)-1H-1,2,3-triazole-4-carboxamide]: the EC50 came to 0.209 µM. Take `O=C(NCc1cc(-c2ccccc2)no1)c1cn(CC(F)F)nn1` [Example 291, 1-(2,2-difluoroethyl)-N-((3-phenylisoxazol-5-yl)methyl)-1H-1,2,3-triazole-4-carboxamide]: the EC50 came out at 0.012 µM. On to `O=C(NCc1cc(-c2ccccc2)on1)c1cn(CC(F)F)nn1` [Example 292, 1-(2,2-difluoroethyl)-N-((5-phenylisoxazol-3-yl)methyl)-1H-1,2,3-triazole-4-carboxamide], for which the EC50 turned out to be 0.005 µM. Next, `O=C(NCc1ccc(-c2ccccc2)nn1)c1cn(CC(F)F)nn1` [Example 293, 1-(2,2-difluoroethyl)-N-((6-phenylpyridazin-3-yl)methyl)-1H-1,2,3-triazole-4-carboxamide]: 0.021 µM; `Cn1cc(C(=O)NCc2nnc(N3CCCCC3)s2)nn1` [Example 294, 1-methyl-N-((5-(piperidin-1-yl)-1,3,4-thiadiazol-2-yl)methyl)-1H-1,2,3-triazole-4-carboxamide]: 0.251 µM. Turning to `Cn1cc(C(=O)NCc2nnc(-c3ccc(O)cc3)s2)nn1` [Example 295, N-[[5-(4-hydroxyphenyl)-1,3,4-thiadiazol-2-yl]methyl]-1-methyl-triazole-4-carboxamide], the EC50 amounted to 0.081 µM. Next, `Cn1cc(C(=O)NCc2nnc(-c3ccc(Cl)cc3)s2)nn1` [Example 296, N-((5-(4-chlorophenyl)-1,3,4-thiadiazol-2-yl)methyl)-1-methyl-1H-1,2,3-triazole-4-carboxamide]: 0.418 µM; `Cn1cc(C(=O)NCc2nnc(-c3cncs3)s2)nn1` [Example 297, 1-methyl-N-((5-(thiazol-5-yl)-1,3,4-thiadiazol-2-yl)methyl)-1H-1,2,3-triazole-4-carboxamide]: 0.079 µM. For `Cc1ccc(-n2cc(C(=O)NCc3nnc(-c4cncs4)s3)nn2)c(C)n1` [Example 298, 1-(2,6-dimethylpyridin-3-yl)-N-((5-(thiazol-5-yl)-1,3,4-thiadiazol-2-yl)methyl)-1H-1,2,3-triazole-4-carboxamide], the EC50 came out at 0.014 µM.

Turning to `Cn1cc(C(=O)NCc2nnc(-c3cn[nH]c3)s2)nn1` [Example 299, N-((5-(1H-pyrazol-4-yl)-1,3,4-thiadiazol-2-yl)methyl)-1-methyl-1H-1,2,3-triazole-4-carboxamide], the EC50 worked out at 0.215 µM.
